From patent US7205382B2, “Peptides, the production and use thereof for binding immunoglobulins” (Fresenius Medical Care Affina GmbH, priority 2000, dated 2007)
Bridge positions count the residues as written; N and C are the ends. Square brackets hold non-standard residues; d marks the D form. Ends that are not written are not given here. cellulose = not defined here; βAla = NCCC(=O)O

Tests used:
Assay type in all cases: binding
Set-up in all cases: key: No binding of immunoglobulin for the defined peptide variant, detection negative: 0; Binding of immunoglobulin for the defined peptide variant, detection positive: +
serum albumin = assay: Cellulose-immobilized 13-mer peptide variants incubated with serum albumin (negative control), anti-human IgG-AP detection; details: blocking buffer without addition, 3 h room temperature
Description: (§1) Peptides consisting of 13 amino acids were synthesized by solid phase synthesis (Houghten, 1985) on a cellulose matrix with (βA)(βA) as a spacer group.
(§2) The immobilized peptides were tested for their immunoglobulin binding capability by incubation with human IgG-Fc in a buffered solution and by incubation with human plasma.
(§3) Thus, the peptide variants immobilized on solid phases were washed with T-TBS buffer (136 mM NaCl, 1.6 mM KCl, 0.05% (v/v) Tween 20, 50 mM Tris-HCl, pH 8.0) and subsequently treated with blocking buffers (5% (w/v) saccharose, 4% (w/v) bovine serum albumin in T-TBS). Incubation of the immobilized peptides with IgG-Fc (1 μg/ml) in blocking buffer and human serum (diluted 1:10,000 in blocking buffer) was effected for 3 h at room temperature. For checking the specificity of the binding, buffered serum albumin solution (blocking buffer) without addition was included as a control. Thereafter, the peptide variants immobilized on the solid phases were washed three more times with T-TBS buffer.
(§4) After incubation with alkaline phosphatase-conjugated anti-human IgG antibody (1.2 μg/ml) in blocking buffer, detection of the immunoglobulin binding was effected by means of NBT (nitroblue tetrazolium chloride)/BCIP (5-bromo-4-chloro-3-indolyl phosphate toluidine salt) as a substrate (200 μl of parent solution (18.75 mg/ml NBT and 9.4 mg/ml BCIP in 67% (v/v) DMSO) in 10 ml developing buffer (100 mM Tris-HCl, 100 mM NaCl, 5 mM MgCl2, pH 9.5)).

[1] = test system: immunoglobulins in human plasma; assay: Cellulose-immobilized 13-mer peptide variants incubated with human plasma, anti-human IgG-AP detection; details: human plasma as sample, diluted 1:10,000 in blocking buffer, 3 h room temperature
Description: as §1, §2, §3, §4

human IgG-Fc = assay: Cellulose-immobilized 13-mer peptide variants incubated with human IgG-Fc, anti-human IgG-AP detection; details: IgG-Fc 1 μg/ml in blocking buffer, 3 h room temperature
Description: as §1, §2, §3, §4

Substance | Result for incubation with serum albumin (immunoglobulin binding detection) (serum albumin) | Result for incubation with human plasma (immunoglobulin binding detection) [1] | Result for incubation with human IgG-Fc (immunoglobulin binding detection) (human IgG-Fc)
09R: cellulose-bound 13-mer variant DCAWHLGERVWCT-(βA)(βA) (DCAWHLGERVWCT-{βAla-βAla-cellulose}; disulfide 2-12 (inferred); reading uncertain; also: printed as DCAWHLGERVWCT-(βA)(βA)) | 0 | + | +
06Q: cellulose-bound 13-mer variant DCAWHQGELVWCT-(βA)(βA) (DCAWHQGELVWCT-{βAla-βAla-cellulose}; disulfide 2-12 (inferred); not fully specified (N-terminus); printed as DCAWHQGELVWCT-(βA)(βA); reading uncertain) | 0 | + | +
05W: cellulose-bound 13-mer variant DCAWWLGELVWCT-(βA)(βA) (disulfide 2-12 (inferred); not fully specified (N-terminus, C-terminus); printed as DCAWWLGELVWCT-(βA)(βA); also: cellulose-bound) | 0 | 0 | 0
02N: cellulose-bound 13-mer variant DNAWHLGELVWCT-(βA)(βA) (DNAWHLGELVWCT[βAla][βAla]; not fully specified; printed as DNAWHLGELVWCT-(βA)(βA); also: cellulose-bound) | 0 | 0 | 0
01N: cellulose-bound 13-mer variant NCAWHLGELVWCT-(βA)(βA) (NCAWHLGELVWCT-{βAla-βAla-cellulose}; disulfide 2-12 (inferred); reading uncertain; also: printed as NCAWHLGELVWCT-(βA)(βA)) | 0 | 0 | +
10H: cellulose-bound 13-mer variant DCAWHLGELHWCT-(βA)(βA) (DCAWHLGELHWCT-{βAla-βAla-cellulose}; disulfide 2-12 (inferred); reading uncertain; also: printed as DCAWHLGELHWCT-(βA)(βA)) | 0 | 0 | 0
04S: cellulose-bound 13-mer variant DCASHLGELVWCT-(βA)(βA) (disulfide 2-12 (inferred); not fully specified (N-terminus, C-terminus); printed as DCASHLGELVWCT-(βA)(βA); also: cellulose-bound) | 0 | + | +
03D: cellulose-bound 13-mer variant DCDWHLGELVWCT-(βA)(βA) (DCDWHLGELVWCT-{βAla-βAla-cellulose}; disulfide 2-12 (inferred); reading uncertain; also: printed as DCDWHLGELVWCT-(βA)(βA)) | 0 | 0 | 0
02T: cellulose-bound 13-mer variant DTAWHLGELVWCT-(βA)(βA) (DTAWHLGELVWCT[βAla][βAla]; not fully specified; printed as DTAWHLGELVWCT-(βA)(βA); also: cellulose-bound) | 0 | 0 | 0
01A: cellulose-bound 13-mer variant ACAWHLGELVWCT-(βA)(βA) (ACAWHLGELVWCT-{βAla-βAla-cellulose}; disulfide 2-12 (inferred); reading uncertain; also: printed as ACAWHLGELVWCT-(βA)(βA)) | 0 | + | +
01S: cellulose-bound 13-mer variant SCAWHLGELVWCT-(βA)(βA) (SCAWHLGELVWCT-{βAla-βAla-cellulose}; disulfide 2-12 (inferred); reading uncertain; also: printed as SCAWHLGELVWCT-(βA)(βA)) | 0 | 0 | +
07F: cellulose-bound 13-mer variant DCAWHLFELVWCT-(βA)(βA) (DCAWHLFELVWCT-{βAla-βAla-cellulose}; disulfide 2-12 (inferred); not fully specified (N-terminus); printed as DCAWHLFELVWCT-(βA)(βA); reading uncertain) | 0 | 0 | 0
09C: cellulose-bound 13-mer variant DCAWHLGECVWCT-(βA)(βA) (DCAWHLGECVWCT-{βAla-βAla-cellulose}; not fully specified; printed as DCAWHLGECVWCT-(βA)(βA); cysteine pairing not given here; reading uncertain) | 0 | 0 | 0
03T: cellulose-bound 13-mer variant DCTWHLGELVWCT-(βA)(βA) (DCTWHLGELVWCT-{βAla-βAla-cellulose}; disulfide 2-12 (inferred); reading uncertain; also: printed as DCTWHLGELVWCT-(βA)(βA)) | 0 | + | +
04R: cellulose-bound 13-mer variant DCARHLGELVWCT-(βA)(βA) (disulfide 2-12 (inferred); not fully specified (N-terminus, C-terminus); printed as DCARHLGELVWCT-(βA)(βA); also: cellulose-bound) | 0 | + | +
08W: cellulose-bound 13-mer variant DCAWHLGWLVWCT-(βA)(βA) (DCAWHLGWLVWCT-{βAla-βAla-cellulose}; disulfide 2-12 (inferred); reading uncertain; also: printed as DCAWHLGWLVWCT-(βA)(βA)) | 0 | 0 | 0
10D: cellulose-bound 13-mer variant DCAWHLGELDWCT-(βA)(βA) (DCAWHLGELDWCT-{βAla-βAla-cellulose}; disulfide 2-12 (inferred); reading uncertain; also: printed as DCAWHLGELDWCT-(βA)(βA)) | 0 | 0 | 0
11T: cellulose-bound 13-mer variant DCAWHLGELVTCT-(βA)(βA) | 0 | 0 | 0
09Y: cellulose-bound 13-mer variant DCAWHLGEYVWCT-(βA)(βA) (DCAWHLGEYVWCT-{βAla-βAla-cellulose}; disulfide 2-12 (inferred); reading uncertain; also: printed as DCAWHLGEYVWCT-(βA)(βA)) | 0 | 0 | 0
02Q: cellulose-bound 13-mer variant DQAWHLGELVWCT-(βA)(βA) (DQAWHLGELVWCT[βAla][βAla]; not fully specified; printed as DQAWHLGELVWCT-(βA)(βA); also: cellulose-bound) | 0 | 0 | 0
